Measured values: patent US10961222B2, “Chemical compound of isocitrate dehydrogenase inhibitor, and application thereof” (NANJING SANHOME PHARMACEUTICAL CO., LTD., priority 2016, dated 2021)

What was measured:
IDH2-R140Q mutant enzyme = target: T1, IDH2-R140Q mutant enzyme (Homo sapiens, UniProt P48735, R140Q); assay: Inhibitory activity of compounds on IDH2-R140Q enzyme in vitro (diaphorase/resazurin fluorescence); assay type: biochemical; conditions: IDH2-R140Q, pre-incubated 16 h with enzyme and NADPH, reaction 1 h with α-ketoglutarate; read-out: R140Q IC50
T1 construct: purchased BPS 71100-1
T1 sequence (P48735 40-452 R140Q): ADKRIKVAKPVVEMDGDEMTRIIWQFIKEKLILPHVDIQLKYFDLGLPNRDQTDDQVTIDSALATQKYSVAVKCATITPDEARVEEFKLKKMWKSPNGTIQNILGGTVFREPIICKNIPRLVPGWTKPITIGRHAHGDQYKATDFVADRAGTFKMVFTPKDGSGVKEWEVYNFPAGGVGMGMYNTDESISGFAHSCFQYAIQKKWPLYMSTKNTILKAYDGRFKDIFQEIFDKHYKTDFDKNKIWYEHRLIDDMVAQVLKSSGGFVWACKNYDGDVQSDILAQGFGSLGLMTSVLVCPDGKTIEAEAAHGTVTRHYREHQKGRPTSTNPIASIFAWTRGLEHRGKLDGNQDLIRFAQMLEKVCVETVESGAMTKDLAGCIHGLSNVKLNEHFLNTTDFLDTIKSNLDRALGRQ
Description: Instrument: SpectraMax M3 Multi-Mode Microplate Reader, purchased from Molecular Devices.
In a 96-well plate, 40 μL of reaction buffer containing 2× enzyme (IDH2-WT or IDH2-R140Q) and cofactor (NADP or NADPH) was added to each well of the compound group and the DMSO control group, and 40 μL of reaction buffer containing 2× cofactor (NADP or NADPH) was added to each well of the enzyme-free control group.
20 μL of reaction buffer containing 4× compound to be tested was added to each well of the compound group. The compound was pre-formulated into 200× mother liquor with 100% DMSO; in the final reaction system, the concentration of DMSO was 0.5%. 20 μL of reaction buffer containing DMSO was added to each well of the DMSO control group; in the final reaction system, the concentration of DMSO was 0.5%.
The compound was mixed well with the enzyme and cofactor, and pre-incubated at room temperature for 16 h;
20 μL of reaction buffer containing 4× reaction substrate was added to each well. After mixed uniformly, the mixture was reacted at room temperature for 1 h.
3× termination and detection solution (it was prepared with reaction buffer, the final concentration of Diaphorase was 0.015 mg/mL, and the final concentration of Resazurin was 0.03 mM) was prepared. 40 μL of 3× termination and detection solution was added to each well of the enzyme reaction system. After mixed uniformly, the mixture was incubated at room temperature for 10 min;
Fluorescence values of two wells were obtained and averaged and the activity rate (Activity %) was calculated. The calculation formula: Activity %=(Measured data−Subtract background)/(DMSO Control−Subtract background)×100, wherein “Measured data” is fluorescence value of the compound in the pre-incubated wells, “Subtract background” is the fluorescence value of the enzyme-free control wells, and “DMSO Control” is the fluorescence value in the DMSO pre-incubated wells. Data was processed by GraphPad Prism v5.0 software and fitted to obtain IC50.

[1] = target: T2, U87-MG cell line of overexpressed mutant IDH2 (R140Q) (Homo sapiens, UniProt P48735, R140Q); assay: Cell activity in vitro: 2-HG in culture supernatant of U87-MG (IDH2-R140Q) cells by LC-MS/MS; assay type: cell-based; conditions: U87-MG (IDH2-R140Q) cells, 72 hours, 2-HG in supernatant; read-out: IC50 (2-HG remaining compared to untreated)
T2 construct: expressed in transfected cells
T2 sequence (P48735 40-452 R140Q): T1 sequence (P48735 40-452 R140Q)
Description: 1.2 Cells: human glioblastoma cell line U87-MG, purchased from the American Type Culture Collection (ATCC);
Cell recovery: U87-MG (IDH2-R140Q) cells and U87-MG cells were put into a 37° C. water bath, then transferred to 15 mL of pre-warmed medium, centrifuged at 1000 rpm for 5 minutes, and the medium was discarded. The cells were resuspended in 15 mL of fresh medium, transferred to a T75 flask and cultured in a 37° C. incubator with 5% CO2. After 24 hours, the medium was changed to fresh medium.
Cell passage: The above-mentioned recovered cells were transferred to a 50 mL sterile centrifuge tube, centrifuged at 1000 rpm for 5 minutes, and the medium was discarded. The cells were resuspended evenly and counted. The cell density was adjusted appropriately in a 15 mL fresh medium, and then added to T75 culture flask. The culture flask was incubated in an incubator with 5% CO2 at 37° C.
After cells grown to a relatively high density in the culture dish, the cells were trypsinized, resuspended in medium (MEM+10% FBS), and counted. After adjusting the cell concentration, the resuspended cells were seeded in a 96-well plate at 5×10^3 cells per well. After inoculation, the cells were cultured for 24 hours until the cells adhered. The medium were sucked out, and the medium containing gradient concentration of compound was added, 100 μL per well. The cells were further cultured for 72 hours. The s 20 μL of upernatant was taken and put into a 2 mL 96-well sample-processing plate. 480 μL of dilution solution was added and shaken for mixing, and then centrifuged at 4500 rpm for 5 minutes. 200 μL of supernatant was transferred for LC-MS/MS injection analysis.
Column: Shim-pack XR-ODS 30L*2.0; mobile phase: acetonitrile-0.2% ammonia, 5 mM ammonium acetate aqueous solution; column temperature: 30° C.; flow rate: 0.4 mL/min; gradient elution conditions are as follows: […]
Atmospheric […] chemical ionization (APCI) was used. Source parameters was set as follows: IonSpray Voltage/IS-4500V; auxiliary gas 1 (Ion Source Gas 1/GS 1, N2), 55Arb; auxiliary gas 2 (Ion Source Gas 2, N2), 55Arb; auxiliary gas heating temperature (Temperature/TEM), 500° C.; curtain gas/CUR, 25Arb; collision gas/CAD, N2, 8 Pa.
Multi-ion reaction monitoring (MRM) in negative ion mode (Negative) was used. […] The internal standard (IS) MRM parameters: parent ion (Q 1 Mass), 178.0 Da; daughter ion (Q3 Mass), 149.0 Da; Decluster Potential (DP), −51V; collision voltage (Collision Energy/CE), −17 eV
By determining the 2-HG content in the cell culture supernatant of each well using LC-MS/MS, the mutant enzyme activity (2-HG remaining compared to untreated %) was calculated. The calculation formula: 2-HG remaining compared to untreated %=(Measured 2-HG level—U87-MG control 2-HG level)/(Untreated 2-HG level—U87-MG control 2-HG level)×100. […] Data were processed by GraphPad Prism v5.0 software and fitted to obtain IC50.

[2] = tested on: U87-MG (IDH2-R140Q) subcutaneous xenograft tumor; assay: Subcutaneous xenograft tumor caused by U87-MG (IDH2-R140Q) mutant cells in vivo: intratumor 2-HG; design: species or system BALB/c nude mice
Excerpt: 1.2 Animals: BALB/c nude mice, 6-7 weeks old, female, 18-22 g, purchased from Nanjing Jinlaichang Company.
U87-MG (IDH2-R140Q) cells and U87-MG cells (wild type) were expanded, and cells in logarithmic growth phase were used for tumor inoculation in vivo. 16 mice were inoculated subcutaneously into the right lower back of the body at an amount of 2×10^6 cells/mouse (the volume ratio of cell suspension to Matrigel was 1:0.8).
The non-mutation control group was nude mice inoculated with U87-MG cells, and the test compound groups and vehicle control group were nude mice inoculated with U87-MG (IDH2-R140Q) cells.
Each group was intragastrically administered with a corresponding concentration of the compound solution, the administration volume was 100 μL/10 g body weight, and the control group was administered the same volume of blank vehicle.
After 10 days of administration, the mice were sacrificed. The tumors were exfoliated, homogenized, and the 2-HG content in the tumor was examined.
The 2-HG concentration in the homogenate of each animal tumor in each group was determined by LC-MS/MS. The percentage (2-HG %) was calculated; the calculation formula is as follows 2-HG %=(2-HG concentration of administration group tumor−2-HG concentration of U87-MG control group tumor)/(2-HG concentration of U87−MG(IDH2-R140Q) control group tumor−2-HG concentration of U87-MG control group tumor)×100%.

Row | IC50 (IDH2-R140Q mutant enzyme) [nM] | IC50 [1] [nM] | Compound | ability of lowering 2-HG level compared with positive compound AG-221 ([2]; U87-MG (IDH2-R140Q) subcutaneous xenograft model) | Intratumor 2-HG(%) after 10 days of administration ([2]; 6.25 mg/kg, intragastric, 10 days, mean, relative to U87-MG (IDH2-R140Q) control group) [%]
1 | 15 | 21 | FC(F)(F)c1cc(Nc2nc(-c3cccc(C(F)(F)F)n3)nc(N3CCOCC3)n2)ccn1 [Example 4, 4-Morpholinyl-6-(6-(trifluoromethyl)pyridin-2-yl)-N-(2-(trifluoromethyl)pyridin-4-yl)-1,3,5-triazin-2-amine] | – | –
2 | – | – | O[C@]1(C(F)(F)F)CCN(c2nc(Nc3ccnc(C(F)(F)F)c3)nc(-c3cccc(C(F)(F)F)n3)n2)C1 [Example 22A, (R)-4-(3-trifluoromethyl-3-hydroxypyrrolidin-1-yl)-6-(6-(trifluoromethyl)pyridin-2-yl)-N-(2-(trifluoromethyl)pyridin-4-yl)-1,3,5-triazin-2-amine] | substantially superior | –
3 | 30 | – | O[C@H]1CN(c2nc(Nc3ccnc(C(F)(F)F)c3)nc(-c3cccc(C(F)(F)F)n3)n2)C[C@@H]1F [Example 23, 4-((3S,4S)-3-hydroxy-4-fluoropyrrolidin-1-yl)-6-(6-(trifluoromethyl)pyridin-2-yl)-N-(2-(trifluoromethyl)pyridin-4-yl)-1,3,5-triazin-2-amine] | – | 67
4 | 12.5 | 31.2 | CC(C)ONc1nc(Nc2ccnc(C(F)(F)F)c2)nc(-c2cccc(C(F)(F)F)n2)n1 [Example 27] | – | –
5 | 5.8 | 17.1 | CN(C)Nc1nc(Nc2ccnc(C(F)(F)F)c2)nc(-c2cccc(C(F)(F)F)n2)n1 [Example 29] | – | –
6 | 21.3 | 38.1 | CCN(CC(C)(C)O)c1nc(Nc2ccnc(C(F)(F)F)c2)nc(-c2cccc(C(F)(F)F)n2)n1 [Example 31, 1-(Ethyl(4-(6-(trifluoromethyl)pyridin-2-yl)-6-((2-(trifluoromethyl)pyridin-4-yl)amino)-1,3,5-triazin-2-yl)amino)-2-methylpropan-2-ol] | – | –
7 | 26.5 | 36.1 | OC1CN(c2nc(Nc3ccnc(C(F)(F)F)c3)nc(-c3cccc(C(F)(F)F)n3)n2)C1 [Example 32] | – | –
8 | 29.2 | 10.2 | CC1(O)CN(c2nc(Nc3ccnc(C(F)(F)F)c3)nc(-c3cccc(C(F)(F)F)n3)n2)C1 [Example 33] | – | –
9 | 8.3 | 9.8 | FC1(F)CN(c2nc(Nc3ccnc(C(F)(F)F)c3)nc(-c3cccc(C(F)(F)F)n3)n2)C1 [Example 35, 4-(3,3-Difluoroazetidin-1-yl)-6-(6-(trifluoromethyl)pyridin-2-yl)-N-(2-(trifluoromethyl)pyridin-4-yl)-1,3,5-triazin-2-amine] | – | –
10 | 25.2 | 59.1 | OC1(C(F)(F)F)CCN(c2nc(Nc3ccnc(C(F)(F)F)c3)nc(-c3cccc(C(F)(F)F)n3)n2)CC1 [Example 38, 4-(Trifluoromethyl)-1-(4-(6-(trifluoromethyl)pyridin-2-yl)-6-((2-(trifluoromethyl)pyridin-4-yl)amino)-1,3,5-triazin-2-yl)piperidin-4-ol] | – | –
11 | – | 33.1 | CC(C)(O)/C=C/c1nc(Nc2ccnc(C(F)(F)F)c2)nc(-c2cccc(C(F)(F)F)n2)n1 [Example 40, 2-Methyl-4-(4-(6-(trifluoromethyl)pyridin-2-yl)-6-((2-(trifluoromethyl)pyridin-4-yl)amino)-1,3,5-triazin-2-yl)-3-buten-2-ol] | – | –
12 | 16.1 | 10.1 | CC(C)(O)CCc1nc(Nc2ccnc(C(F)(F)F)c2)nc(-c2cccc(C(F)(F)F)n2)n1 [Example 41, 2-Methyl-4-(4-(6-(trifluoromethyl)pyridin-2-yl)-6-((2-(trifluoromethyl)pyridin-4-yl)amino)-1,3,5-triazin-2-yl)-3-butan-2-ol] | – | –
13 | 5.1 | 8.1 | CC(C)Oc1nc(Nc2ccnc(C(F)(F)F)c2)nc(-c2cccc(C(F)(F)F)n2)n1 [Example 42, 4-Isopropoxy-6-(6-(trifluoromethyl)pyridin-2-yl)-N-(2-(trifluoromethyl)pyridin-4-yl)-1,3,5-triazin-2-amine] | – | –
14 | 5.8 | 9.6 | FC(F)(F)COc1nc(Nc2ccnc(C(F)(F)F)c2)nc(-c2cccc(C(F)(F)F)n2)n1 [Example 43, 4-(2,2,2-Trifluoroethoxy)-6-(6-(trifluoromethyl)pyridin-2-yl)-N-(2-(trifluoromethyl)pyridin-4-yl)-1,3,5-triazin-2-amine] | – | –
15 | 8.8 | 5.1 | CC(Oc1nc(Nc2ccnc(C(F)(F)F)c2)nc(-c2cccc(C(F)(F)F)n2)n1)C(F)(F)F (stereo not drawn) [Example 44, 4-(6-(Trifluoromethyl)pyridin-2-yl)-N-(2-(trifluoromethyl)pyridin-4-yl)-6-((1,1,1-trifluoroisopropyl-2-yl)oxy)-1,3,5-triazin-2-amine] | – | –

Row | Compound | IC50 (IDH2-R140Q mutant enzyme) [nM] | IC50 [1] [nM] | ability of lowering 2-HG level compared with positive compound AG-221 ([2]; U87-MG (IDH2-R140Q) subcutaneous xenograft model) | Intratumor 2-HG(%) after 10 days of administration ([2]; 6.25 mg/kg, intragastric, 10 days, mean, relative to U87-MG (IDH2-R140Q) control group) [%]
16 | CC(C)(C)ONc1nc(Nc2ccnc(C(F)(F)F)c2)nc(-c2cccc(C(F)(F)F)n2)n1 [Example 28, 4-(Tert-Butoxyamino)-6-(6-(trifluoromethyl)pyridin-2-yl)-N-(2-(trifluoromethyl)pyridin-4-yl)-1,3,5-triazin-2-amine] | 12.2 | 25.1 | – | –
